Measurements reported in ChEMBL document CHEMBL4177586, “Small molecule adjuvants that suppress both chromosomal and mcr-1 encoded colistin-resistance and amplify colistin efficacy in polymyxin-susceptible bacteria” (Bioorg Med Chem, 2017).

Legend:
[1] = test system: Acinetobacter baumannii; assay: Antimicrobial activity against Acinetobacter baumannii ATCC 17978 incubated for overnight duration by CLSI based method; assay type: functional, organism-based
[2] = test system: Acinetobacter baumannii; assay: Antimicrobial activity against Acinetobacter baumannii SM1536 incubated for overnight duration by CLSI based method; assay type: functional, organism-based
[3] = test system: Escherichia coli; assay: Antimicrobial activity against Escherichia coli ATCC 25922 incubated for overnight duration by CLSI based method; assay type: functional, organism-based
[4] = test system: Escherichia coli; assay: Antimicrobial activity against Escherichia coli YD626 incubated for overnight duration by CLSI based method; assay type: functional, organism-based
[5] = test system: Klebsiella pneumoniae; assay: Antimicrobial activity against Klebsiella pneumoniae 2210291 incubated for overnight duration by CLSI based method; assay type: functional, organism-based
[6] = test system: Acinetobacter baumannii; assay: Antimicrobial activity against Acinetobacter baumannii ATCC 17978 expressing mcr1 gene incubated for overnight duration by CLSI based method; assay type: functional, organism-based
[7] = test system: Acinetobacter baumannii; assay: Antimicrobial activity against Acinetobacter baumannii SM1536 expressing mcr1 gene incubated for overnight duration by CLSI based method; assay type: functional, organism-based
[8] = test system: Escherichia coli; assay: Antimicrobial activity against Escherichia coli ATCC 25922 expressing mcr1 gene incubated for overnight duration by CLSI based method; assay type: functional, organism-based
[9] = test system: Escherichia coli; assay: Antimicrobial activity against Escherichia coli YD626 expressing mcr1 gene incubated for overnight duration by CLSI based method; assay type: functional, organism-based
[10] = test system: Klebsiella pneumoniae; assay: Antimicrobial activity against Klebsiella pneumoniae 2210291 expressing mcr1 gene incubated for overnight duration by CLSI based method; assay type: functional, organism-based
[11] = test system: Acinetobacter baumannii; assay: Potentiation of colistin-induced antimicrobial activity against Acinetobacter baumannii ATCC 17978 expressing mcr1 gene assessed as reduction in colistin MIC at 60 uM incubated for overnight duration by CLSI based method relative to colistin alone control; assay type: functional

| MIC [1] | MIC [2] | MIC [3] | MIC [4] | MIC [5] | MIC [6] | MIC [7] | MIC [8] | MIC [9] | MIC [10] | Molecule | fold change (FC) [11] |
| --- | --- | --- | --- | --- | --- | --- | --- | --- | --- | --- | --- |
| 2 µg/mL | 2 µg/mL | 1 µg/mL | 1 µg/mL | 1 µg/mL | 16 µg/mL | 64 µg/mL | 8 µg/mL | 4 µg/mL | 16 µg/mL | COLISTIN | – |
| – | – | – | – | – | – | – | – | – | – | O=C(NCCc1c[nH]c2ccccc12)c1cc(Cl)c(Cl)[nH]1 | 32 |
